Several values for one entry are separate records, joined by “and”; a condition that tells them apart may be missing. Identical values can stand only once.
Legend:
[1] = target: T1, cyclase, epimerase and ring expansion enzyme from a cell-free extract of S. clavuligerus (Streptomyces clavuligerus, UniProt P10621); test: Cyclization / ring expansion of peptides with enzymes of S. clavuligerus cell-free extract (SPCFX); format: biochemical
T1 construct: from a cell-free extract of S. clavuligerus; endogenous in cells; host or cells: Streptomyces clavuligerus (cell-free extract / salt-precipitated cell-free extract)
T1 sequence (P10621 1-329): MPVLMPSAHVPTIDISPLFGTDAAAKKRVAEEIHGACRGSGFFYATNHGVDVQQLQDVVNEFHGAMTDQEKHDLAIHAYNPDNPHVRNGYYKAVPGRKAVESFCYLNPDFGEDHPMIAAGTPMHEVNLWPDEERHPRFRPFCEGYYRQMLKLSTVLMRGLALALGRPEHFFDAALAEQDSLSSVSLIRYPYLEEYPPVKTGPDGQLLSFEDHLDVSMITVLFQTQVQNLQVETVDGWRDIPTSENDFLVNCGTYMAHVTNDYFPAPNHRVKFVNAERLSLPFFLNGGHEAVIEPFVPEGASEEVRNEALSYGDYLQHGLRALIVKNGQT
Method: (§1) Cyclization activity of enzyme preparations was measured in reaction mixtures containing: bis-δ-(L-α-amino-adipyl-L-cysteinyl-D-valine) (ACV)2 0.306 mM, […] 4 mM, Na ascorbate 2.8 mM, FeSO4 45 μM, tris-HCl buffer 0.05M, pH 7.0, enzyme preparation 0.03-0.3 ml, final volume 0.4 ml. Reaction mixtures were incubated at 20° C. for up to 4 hours and stopped by cooling on ice or by the addition of 0.4 ml methanol.
(§2) Ring expansion activity was followed using the cyclization assay system described above but supplemented with ATP 0.5 mM, α-ketoglutarate 1 mM, KCl 7.5 mM, and MgSO4 7.5 mM. Total volume and incubation conditions were the same as for the cyclization assay.
(§3) To 0.4 ml of reaction mixture were added 0.9 mM of ACV dimer as produced in Example 4, 50.0 mM Tris-HCl pH 7.0 buffer and a mixture of the three enzymes as produced in Example 1 from a cell-free extract of S. clavuligerus, together with 45.0 μM ferrous sulfate and 2.8 mM ascorbic acid as optimized amounts of essential co-factors. DTT was added in excess of the amount required to reduce ACV dimer to ACV monomer. The reaction was continued for approximately 2 hours at 20° C. and then terminated by addition of 0.4 ml methanol to precipitate protein.
(§4) The procedures of Example 7 were repeated using L-aspartyl, L-glutamyl, D-α-aminoadipyl, adipyl, glycyl-L-α-aminoadipyl and N-acetyl-L-α-aminodipyl-containing peptides. […] A prokaryotic system is, therefore, required. Modification of the valinyl moiety, as noted above, has been considered in detail. Substrates modified in the valinyl moiety such as: [drawing 17] where R1 is H, a lower alkyl or functionalized carboxylic group; and R2 is H or a lower alkyl group may be cyclized with carbon-sulfur bond formation with retention of configuration at the beta carbon of the valine analog, leading to isopenicillin N analogs of the type: [drawing 18] Following epimerization to penicillin N analogs of the type: [drawing 19] ring expansion leads to cephalosporin analogs of the type: with transfer of the beta carbon atom attached to C2 of (11) into C2 of the six membered ring.
(§5) Methanol inactivated reaction mixtures (from Examples 7 and 8) were centrifuged at 12,000×g for 5 min to remove precipitated protein before analysis. Reaction mixtures from Example 9 were examined directly. The chromatographic equipment used was: M-6000A pump, UK-6 injector, M-480 variable wavelength director, M-420 data module and Bondapak-C18 column (Rad Pak A in a Z module) as stationary phase. All equipment was from Waters Scientific Co., Mississauga, Ontario. The mobile phase consisted of methanol/0.05 M potassium phosphate buffer, pH 4.0 (5/95). The methanol content of the mobile phase depended upon the particular separation and the source of the material e.g. Examples 7 and 8 or Example 9. A short precolumn (packed with Bondapak C18 /Corasil) was used to guard the main column. UV-absorbing material was detected at 220 nm at a sensitivity of 0.02 AUFS.

[2] = test system: cyclase, epimerase and ring expansion enzyme from a cell-free extract of S. clavuligerus; test: as above; format: biochemical
Method: as §1, §2, §3, §4, §5

[3] = test system: Micrococcus luteus ATCC. 9341; test: Agar diffusion bioassay of cyclization reaction mixtures versus M. luteus; format: cell-based; conditions: cyclization reaction mixture, SPCFX, 2h at 20° C., 20 μl
Excerpt: (§6) Antibiotic in reaction mixtures was estimated by the agar diffusion method. Cyclization reaction mixtures were bioassayed using Micrococcus luteus ATCC. 9341 and Escherichia coli Ess as indicator organisms. Ring expansion reaction mixtures were bioassayed using E. coli Ess as indicator organism in agar plates supplemented with penicillinase at 2×10^5 units/ml
(§7) The procedure of Example 7 was repeated with ACV analogs in which valine was replaced by alpha-aminobutyric acid (R1 =R2 =H) and allo-isoleucine (R1 =H, R2 =C2 H5), as follows: (AC-aminobutyrate)2 (ACAB)2 and (AC-alloisoleucine)2 (ACI)2 were dissolved in water, neutralized, and lyophilized in 0.1 and 1.0 mg amounts. These peptides were then used as substrates in cyclization and ring expansion assays as follows: One hundred micrograms of (ACV)2 from Example 6 was used as substrate in a cyclization and a ring expansion assay system using 0.1 ml of salt-precipitated cell-free extract as enzyme source in each case. (Final concentration of (ACV)2 is 0.306 mM). Identical cyclization and ring expansion assays were set up in which 100 μg (ACAB)2 or 1.0 mg (ACI)2 replaced the (ACV)2 as substrate and 0.3 ml of salt precipitated cell-free extract was used as enzyme source. No substrate controls were also prepared. The reaction mixtures were incubated for 2h at 20° C. At the end of incubation 20 μl amounts of the cyclization reaction mixtures were bioassayed versus M. luteus and E. coli Ess; 20 μl amounts of the ring expansion reaction mixtures were bioassayed versus E. coli Ess plus and minus penicillinase.

[4] = test system: E. coli Ess + penicillinase; test: Agar diffusion bioassay of ring expansion reaction mixtures, plates with penicillinase; format: cell-based, Escherichia coli; conditions: for Zone of Inhibition, E. coli Ess + penicillinase: SPCFX, 2h at 20° C., 20 μl; for Cephalosporin C "equivalents" / Zone of Inhibition: immobilized enzyme reactor reaction mixture
Method: (§8) 2 ml of the reaction mixture was applied to the immobilized enzyme reactor by means of a peristaltic pump operating at 40 ml/h. Effluent was collected into a 13×100 mm test tube from which the original reaction mixture was pumped, and therefore was recycled continuously through the enzyme reactor. The enzyme reactor was operated at 21° C. and 20 μl aliquots were removed at 15 minute time intervals for analysis for antibiotic formation. (Table I).
as §6, §7

Escherichia coli Ess = test: Agar diffusion bioassay of reaction mixtures versus E. coli Ess; format: cell-based; conditions: for Zone of Inhibition, E. coli Ess: SPCFX, 2h at 20° C., 20 μl
Excerpt: as §6, §7

[5] = target: T2, immobilized SPCFX (cyclase, epimerase, ring expansion enzyme) on DEAE Trisacryl (Streptomyces clavuligerus, UniProt P10621); test: Conversion of ACV on immobilized SPCFX column (immobilized enzyme reactor), HPLC; format: biochemical; conditions: 1 mg ACV, cycled 1.5 hours at 40 ml per hour through 2 ml immobilized SPCFX
T2 construct: Cell-free extracts were prepared by washing 40-48 h cells of S. clavuligerus; endogenous in cells
T2 sequence (P10621 1-329): T1 sequence (P10621 1-329)
Method: DEAE-Trisacryl® resin was loaded into a column 0.4×5.8 cm (packed bed volume, 1 ml), washed with 3×2 ml of the same EDTA buffer, and allowed to drain to dryness by gravity. One milliliter of the salt-precipitated cell-free extract above was applied to the column. The effluent was collected and reapplied to the column twice to ensure complete enzyme loading. The column was washed with 2×1 ml of the same EDTA buffer, drained dry and centrifuged for 3 min. at 500×g to remove excess buffer. This immobilized enzyme reactor was stored at 4° C. when not in use.
as §8
Methanol inactivated reaction mixtures (from Examples 7 and 8) were centrifuged at 12,000×g for 5 min to remove precipitated protein before analysis. Reaction mixtures from Example 9 were examined directly. […] UV-absorbing material was detected at 220 nm at a sensitivity of 0.02 AUFS. […]

[6] = ring expansion reaction mixture
[7] = mixture of the three enzymes, approx. 2 hours at 20° C., without alpha-ketoglutarate

## CC(=O)N[C@@H](CCCC(=O)N[C@@H](CS)C(=O)N[C@@H](C(=O)O)C(C)C)C(=O)O
[1]; procedures of Example 7
  cyclization of the peptide: Cyclization was observed
[2]; via an initial deacylation to ACV
  conversion product with SPCFX: penicillin N and isopenicillin N

## CC[C@@H](NC(=O)[C@H](CSSC[C@H](NC(=O)CCC[C@H](N)C(=O)O)C(=O)N[C@H](CC)C(=O)O)NC(=O)CCC[C@H](N)C(=O)O)C(=O)O [(ACAB)2]
[3]
  Zone of Inhibition, M. luteus: 8.0 mm
[4]; [6]
  formation of penicillinase-insensitive antibiotic: do not form penicillinase-insensitive antibiotic
  Zone of Inhibition, E. coli Ess + penicillinase: 0 mm
Escherichia coli Ess; cyclization reaction mixture
  antibiotic activity equivalent to a solution of cephalosporin C against E. coli Ess: 0.9 µg/mL
  Zone of Inhibition, E. coli Ess: 12.5 mm
Escherichia coli Ess; [6]
  formation of antibiotic affecting E. coli Ess: nor do they form any antibiotic affecting E. coli Ess
  Zone of Inhibition, E. coli Ess: 8.0 mm

## CC[C@H](C)[C@@H](NC(=O)[C@H](CSSC[C@H](NC(=O)CCC[C@H](N)C(=O)O)C(=O)N[C@@H](C(=O)O)[C@@H](C)CC)NC(=O)CCC[C@H](N)C(=O)O)C(=O)O [(ACI)2]
[3]
  Zone of Inhibition, M. luteus: 13.0 mm
[4]; [6]
  antibiotic activity equivalent to a solution of cephalosporin C, E. coli Ess + penicillinase plates: 0.9 µg/mL
  Zone of Inhibition, E. coli Ess + penicillinase: 12.5 mm
Escherichia coli Ess; cyclization reaction mixture
  antibiotic activity equivalent to a solution of cephalosporin C against E. coli Ess: 4.85 µg/mL
  Zone of Inhibition, E. coli Ess: 20.0 mm
Escherichia coli Ess; [6]
  Zone of Inhibition, E. coli Ess: 20.0 mm

## CC(C)[C@@H](NC(=O)[C@H](CSSC[C@H](NC(=O)CCC[C@H](N)C(=O)O)C(=O)N[C@@H](C(=O)O)C(C)C)NC(=O)CCC[C@H](N)C(=O)O)C(=O)O [(ACV)2, bis-δ-(L-α-amino-adipyl-L-cysteinyl-D-valine)]
[3]
  Zone of Inhibition, M. luteus: 29.0 mm
[4]; sample time 0 min
  Cephalosporin C "equivalents": 0
[4]; sample time 0 min, 20 μl aliquot
  Zone of Inhibition: 0 mm
[4]; sample time 15 min
  Cephalosporin C "equivalents": .031 μm
  Zone of Inhibition: 15 mm
[4]; sample time 30 min
  Cephalosporin C "equivalents": .086 μm
  Zone of Inhibition: 19.5 mm
[4]; sample time 45 min
  Cephalosporin C "equivalents": .062 μm
  Zone of Inhibition: 18.5 mm
[4]; sample time 60 min
  Cephalosporin C "equivalents": .136 μm
  Zone of Inhibition: 21.5 mm
[4]; sample time 75 min
  Cephalosporin C "equivalents": .136 μm
  Zone of Inhibition: 21.5 mm
[4]; [6]
  antibiotic activity equivalent to a solution of cephalosporin C, E. coli Ess + penicillinase plates: 7.6 µg/mL
  Zone of Inhibition, E. coli Ess + penicillinase: 22 mm and 22.0 mm
Escherichia coli Ess; cyclization reaction mixture
  antibiotic activity equivalent to a solution of cephalosporin C against E. coli Ess: 29.3 µg/mL
  Zone of Inhibition, E. coli Ess: 28.0 mm
Escherichia coli Ess; [6]
  Zone of Inhibition, E. coli Ess: 28.5 mm

## CC(C)[C@@H](NC(=O)[C@H](CS)NC(=O)CCC[C@H](N)C(=O)O)C(=O)O [ACV, L-aminoadipyl-L-cysteinyl-D-valine]
[1]; [7]
  conversion product by bioassay and HPLC: converted to a mixture of isopenicillin N and penicillin N
[2]; [7]
  ring expansion to a cephalosporin: did not occur
[2]; mixture of the three enzymes, with 1 mM alpha-ketoglutarate
  conversion product: converted to desacetoxycephalosporin C
[5]
  conversion of ACV into a mixture of isopenicillin N, penicillin N, desacetoxycephalosporin C and desacetylcephalosporin C, by HPLC: approximately 90%

## CC(C)[C@@H](NC(=O)[C@H](CS)NC(=O)CCCCC(=O)O)C(=O)O [adipyl-containing peptide]
[1]; procedures of Example 7
  cyclization of the peptide: Cyclization was observed
  cyclization to the corresponding penicillin, carboxybutylpenicillin: ~20%
